Test systems include OVCAR-5 ovarian; UO-31 renal; OVCAR-3 ovarian; T-47D breast; A549 NSCLC; SK-MEL-2 melanoma; COLO 205 colon; SF-295 CNS; CCRF-CEM leukemia; UACC-62 melanoma.
Common to all, as to assay: growth of human tumour cells (NCI), 48 h

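Each compound was tested at five concentrations against cells in 96-well plates for 48 hours. TGI denotes the concentration required for complete inhibition of growth.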

Take `Cc1cc(N(C)C)c2ccccc2[n+]1CCCCCCCCCC[n+]1c(C)cc(N(C)C)c2ccccc21`: the TGI in the experiment with OVCAR-5 ovarian turned out to be 15.6 µM; with UO-31 renal, 13.1 µM; in the experiment with OVCAR-3 ovarian, 10.5 µM; in the experiment with T-47D breast, 15.2 µM; in the experiment with A549 NSCLC it was 18 µM; with SK-MEL-2 melanoma it was 4.98 µM. Further, the TGI in the experiment on COLO 205 colon came out at 6.07 µM; with SF-295 CNS it was 8.95 µM; in the experiment with CCRF-CEM leukemia, 13.5 µM; in the experiment on UACC-62 melanoma, 3.35 µM.
Take `N#CC(c1ccccc1)N(CCOCCOCCN(C(=O)c1ccccc1)C(C#N)c1ccccc1)C(=O)c1ccccc1` (stereo not given): the TGI in the experiment on OVCAR-5 ovarian was greater than 100 µM; in the experiment on UO-31 renal, greater than 100 µM; in the experiment with OVCAR-3 ovarian, greater than 100 µM; with T-47D breast, 67.4 µM; in the experiment with A549 NSCLC, greater than 100 µM; in the experiment on SK-MEL-2 melanoma, greater than 100 µM. For the same compound, the TGI with COLO 205 colon, in the experiment with SF-295 CNS, in the experiment on CCRF-CEM leukemia and with UACC-62 melanoma was greater than 100 µM each time.
As for `CC1(C)C=CC(=O)C(O)C(C)(C)C1=O` (stereo not given), the TGI is greater than 100 µM with OVCAR-5 ovarian; greater than 100 µM in the experiment on UO-31 renal; 79.6 µM in the experiment with OVCAR-3 ovarian; greater than 100 µM in the experiment with T-47D breast; greater than 100 µM in the experiment on A549 NSCLC; greater than 100 µM in the experiment with SK-MEL-2 melanoma. The TGI was greater than 100 µM in the experiment on COLO 205 colon, greater than 100 µM with SF-295 CNS, 3.63 µM in the experiment on CCRF-CEM leukemia and greater than 100 µM in the experiment on UACC-62 melanoma.
`O=C(OCC(Cl)(Cl)Cl)N1CC[C@H](C2CCCCC2)C1`: the TGI worked out at 34.4 µM in the experiment on OVCAR-5 ovarian; 35.3 µM in the experiment on UO-31 renal; 30.3 µM in the experiment on OVCAR-3 ovarian; 35.1 µM in the experiment on T-47D breast; 36.1 µM with A549 NSCLC; 30.4 µM with SK-MEL-2 melanoma. The TGI in the experiment on COLO 205 colon was 39 µM; with SF-295 CNS, 31.5 µM; with CCRF-CEM leukemia, 36.1 µM; with UACC-62 melanoma it was 52.9 µM.
`CC(C)Oc1cccc(N2C(=NCc3c[nH]c4ccccc34)Nc3ccncc3S2(=O)=O)c1`: the TGI is greater than 100 µM in the experiment on OVCAR-5 ovarian; greater than 100 µM in the experiment with UO-31 renal; 56.1 µM with OVCAR-3 ovarian; 85.2 µM with T-47D breast; greater than 100 µM with A549 NSCLC; 51.3 µM in the experiment on SK-MEL-2 melanoma. In addition, the TGI is 29.4 µM in the experiment with COLO 205 colon, greater than 100 µM in the experiment with SF-295 CNS, greater than 100 µM in the experiment on CCRF-CEM leukemia and 93.5 µM with UACC-62 melanoma.
On to `Cc1cc(OP2(=O)NCc3ncccc3O2)ccc1Cl` (stereo not given), for which the TGI in the experiment with OVCAR-5 ovarian, in the experiment with UO-31 renal, in the experiment with OVCAR-3 ovarian, in the experiment with T-47D breast, in the experiment with A549 NSCLC and in the experiment on SK-MEL-2 melanoma was greater than 100 µM each time. Also, the TGI in the experiment on COLO 205 colon, with SF-295 CNS, in the experiment on CCRF-CEM leukemia and in the experiment on UACC-62 melanoma was greater than 100 µM each time.
As to `COc1cc(O)c2c(=O)c(OC)c(-c3ccc(OC)c(O)c3)oc2c1`, the TGI with OVCAR-5 ovarian, with UO-31 renal, with OVCAR-3 ovarian, in the experiment with T-47D breast, in the experiment on A549 NSCLC and with SK-MEL-2 melanoma was greater than 100 µM in each case. Also, the TGI in the experiment with COLO 205 colon, with SF-295 CNS, in the experiment on CCRF-CEM leukemia and in the experiment with UACC-62 melanoma was greater than 100 µM in each case.
Consider `COc1ccc(C(=O)NCCN(C)C)c2nc3ccccc3cc12`, for which the TGI in the experiment with OVCAR-5 ovarian came to 8.06 µM; with UO-31 renal, 5.14 µM; in the experiment on OVCAR-3 ovarian, 9.93 µM; with T-47D breast, 12.6 µM; in the experiment with A549 NSCLC it was 2.4 µM; in the experiment on SK-MEL-2 melanoma, 7.46 µM. In addition, the TGI is 2.57 µM in the experiment on COLO 205 colon, 6.34 µM in the experiment on SF-295 CNS, 11.4 µM with CCRF-CEM leukemia and 4.62 µM in the experiment on UACC-62 melanoma.
As for `CC(C)(C)OC(=O)NC(CSSCC(NC(=O)OC(C)(C)C)C(=O)O)C(=O)O` (stereo not given), the TGI with OVCAR-5 ovarian, in the experiment with UO-31 renal, with OVCAR-3 ovarian, in the experiment on T-47D breast, in the experiment on A549 NSCLC and in the experiment with SK-MEL-2 melanoma was greater than 100 µM each time. Moreover, the TGI in the experiment on COLO 205 colon, in the experiment on SF-295 CNS, in the experiment with CCRF-CEM leukemia and in the experiment with UACC-62 melanoma was greater than 100 µM in each case.
Take `C[C@@H]1CCC2[C@@H](C)[C@@H](O[C@H]3O[C@@H]4O[C@@]5(C)CCC6[C@H](C)CCC([C@H]3C)[C@]64OO5)O[C@@H]3O[C@@]4(C)CCC1[C@@]23OO4` (stereo not given in full): the TGI with OVCAR-5 ovarian, with UO-31 renal, in the experiment on OVCAR-3 ovarian, with T-47D breast, with A549 NSCLC and in the experiment with SK-MEL-2 melanoma was greater than 25 µM in each case. Also, the TGI with COLO 205 colon, in the experiment on SF-295 CNS, in the experiment on CCRF-CEM leukemia and with UACC-62 melanoma was greater than 25 µM throughout.
In the case of `CC(C)(CO)CNc1nc(N)nc(Cl)c1/C=N/O`, the TGI with OVCAR-5 ovarian was greater than 100 µM; with UO-31 renal it was greater than 100 µM; with OVCAR-3 ovarian it was greater than 100 µM; in the experiment with T-47D breast, 38.9 µM; in the experiment on A549 NSCLC it was greater than 100 µM; in the experiment with SK-MEL-2 melanoma, greater than 100 µM. The TGI in the experiment on COLO 205 colon, in the experiment on SF-295 CNS, with CCRF-CEM leukemia and in the experiment with UACC-62 melanoma was greater than 100 µM throughout.
Consider `CC12c3c4ccc(C=O)c3Oc3ccc(C=O)c(c31)Oc1ccc(C=O)c(c12)O4`, for which the TGI in the experiment on OVCAR-5 ovarian, in the experiment on UO-31 renal, with OVCAR-3 ovarian, in the experiment with T-47D breast, in the experiment on A549 NSCLC and in the experiment on SK-MEL-2 melanoma was greater than 25 µM in each case. Further, the TGI in the experiment with COLO 205 colon, in the experiment with SF-295 CNS, in the experiment with CCRF-CEM leukemia and in the experiment on UACC-62 melanoma was greater than 25 µM each time.
Regarding `COC(=O)c1ccccc1CC1Cc2cccc(C)c2C1=O` (stereo not given), the TGI in the experiment on OVCAR-5 ovarian was greater than 100 µM; with UO-31 renal, 67.2 µM; in the experiment on OVCAR-3 ovarian, greater than 100 µM; with T-47D breast, 82.7 µM; with A549 NSCLC it was greater than 100 µM; in the experiment with SK-MEL-2 melanoma, 53.2 µM. The TGI with COLO 205 colon was 39.3 µM; in the experiment with SF-295 CNS, greater than 100 µM; with CCRF-CEM leukemia, greater than 100 µM; with UACC-62 melanoma, 98.1 µM.
As for `CCCCOCCOC1=C(Cl)C(=O)c2c(O)ccc(O)c2C1=O`, the TGI was 2.66 µM in the experiment with OVCAR-5 ovarian; 1.72 µM with UO-31 renal; 1.63 µM with OVCAR-3 ovarian; 4.07 µM in the experiment with T-47D breast; 4.64 µM in the experiment on A549 NSCLC; 2.78 µM in the experiment on SK-MEL-2 melanoma. Moreover, the TGI came to 0.397 µM in the experiment with COLO 205 colon, 2.91 µM with SF-295 CNS, 0.242 µM with CCRF-CEM leukemia and 2.64 µM in the experiment with UACC-62 melanoma.
For the compound `O=[N+]([O-])c1cc2oc(CSc3ccccc3)nc2cc1Cl`, the TGI in the experiment on OVCAR-5 ovarian is greater than 100 µM; in the experiment with UO-31 renal, 87.3 µM; in the experiment on OVCAR-3 ovarian, 73.9 µM; in the experiment on T-47D breast, greater than 100 µM; with A549 NSCLC, greater than 100 µM; in the experiment with SK-MEL-2 melanoma it was 51.4 µM. Moreover, the TGI was 44.9 µM in the experiment with COLO 205 colon, 93.9 µM in the experiment on SF-295 CNS, greater than 100 µM with CCRF-CEM leukemia and greater than 100 µM with UACC-62 melanoma.
For the compound `O=C(c1ccccc1)c1ccc2c(c1)NC(=O)c1ccccc1SSc1ccccc1C(=O)N2`, the TGI in the experiment on OVCAR-5 ovarian, with UO-31 renal, in the experiment on OVCAR-3 ovarian, with T-47D breast, with A549 NSCLC and with SK-MEL-2 melanoma was greater than 100 µM each time. Also, the TGI with COLO 205 colon, with SF-295 CNS, in the experiment with CCRF-CEM leukemia and in the experiment on UACC-62 melanoma was greater than 100 µM in each case.
For `OCCCc1ccc2c(c1)[C@H](CO)[C@@H](c1ccc(O)cc1)O2`, the TGI with OVCAR-5 ovarian, in the experiment with UO-31 renal, in the experiment on OVCAR-3 ovarian, with T-47D breast, in the experiment on A549 NSCLC and with SK-MEL-2 melanoma was greater than 100 µM each time. Also, the TGI with COLO 205 colon, with SF-295 CNS, with CCRF-CEM leukemia and with UACC-62 melanoma was greater than 100 µM in each case.
Turning to `CCN(C(=O)N[C@@H](C)C(=O)N[C@@H](Cc1ccccc1)C(=O)OC)c1ccccc1`, the TGI with OVCAR-5 ovarian, in the experiment with UO-31 renal, in the experiment on OVCAR-3 ovarian, in the experiment with T-47D breast, with A549 NSCLC and with SK-MEL-2 melanoma was greater than 100 µM in each case. The TGI in the experiment on COLO 205 colon, in the experiment with SF-295 CNS, in the experiment on CCRF-CEM leukemia and in the experiment on UACC-62 melanoma was greater than 100 µM each time.
Turning to `c1ccc(C(C(=Nc2ccc(Cc3ccc(N=C(C(c4ccccc4)c4ccccc4)N4CC4)cc3)cc2)N2CC2)c2ccccc2)cc1`, the TGI with OVCAR-5 ovarian was determined as 24.5 µM; in the experiment on UO-31 renal, 14.8 µM; in the experiment on OVCAR-3 ovarian, 24.6 µM; with T-47D breast it was 16.5 µM; in the experiment with A549 NSCLC, 22.3 µM; in the experiment with SK-MEL-2 melanoma, 24.6 µM. The TGI turned out to be 16.7 µM in the experiment with COLO 205 colon, 27.5 µM in the experiment with SF-295 CNS, 49.8 µM with CCRF-CEM leukemia and 21.7 µM in the experiment on UACC-62 melanoma.
For the compound `O=C1N(Cc2ccccc2)C2CSCC2N1Cc1ccccc1` (stereo not given), the TGI with OVCAR-5 ovarian was greater than 100 µM; in the experiment on UO-31 renal, 93.5 µM; in the experiment on OVCAR-3 ovarian, 43.9 µM; with T-47D breast, 91.8 µM; in the experiment with A549 NSCLC, greater than 100 µM; in the experiment on SK-MEL-2 melanoma, 46.4 µM. Besides, the TGI in the experiment with COLO 205 colon was 32.8 µM; in the experiment on SF-295 CNS, greater than 100 µM; in the experiment with CCRF-CEM leukemia, greater than 100 µM; in the experiment on UACC-62 melanoma, 79.2 µM.
